{"source": "paper PMC12020424", "about": "“Identification and Validation of Cyclic Peptides with Mucin-Selective, Location-Specific Binding in the Gastrointestinal Tract” (ACS Nano, 2025)", "biological_target": "MUC5AC (Homo sapiens, UniProt P98088)", "assay": "Phage display (CX7C library) against MUC5AC, Sanger sequencing", "format": "binding", "conditions": "MUC5AC phage screening, third round of panning, 16 sequenced candidates", "description": "For each mucin of interest, 5 μg of mucin protein was diluted in 150 μL of Tris-buffered saline (TBS) and added to 2 wells of a microtiter plate. The plate was left overnight in a humidified, sealed container with agitation at 50 rpm. After the overnight mucin coating, the solution was poured out, and 300 μL of blocking buffer was added to the wells for 1 h. After the 1 h waiting period, the blocking buffer was poured out, and the wells were washed three times with 300 μL of Tris-buffered saline with TBST (TBS + 0.1% (v/v) Tween-20) to remove nonspecific binding on the mucin layer coating. Next, 5 μL of the C7C library diluted with 95 μL of TBST was added to each blocked well and placed on shaker for 45 min, before pouring out the nonbinding phage and washing the plate ten times with TBST. A 0.2 M glycine-HCl elution buffer (pH 2.2, 100 μL) was added to each well and placed on a shaker for 20 min to release the mucin-layer binding peptides on the plate as unamplified eluate, with the pH neutralized by 30 μL of neutralization buffer (1 M Tris-HCl, pH 9).\nE. coli liquid cultures were prepared by adding E. coli cells to 20 mL of LB media and placing them in shaking conditions at 37 °C and 250 rpm for 2 h and 45 min. The unamplified eluate (1 μL of which was saved for titering) was added to the E. coli cultures under the same conditions for 4 h and 45 min for amplification. […]", "note": "Bridge positions count the residues as written; N and C are the ends. Ends that are not written are not given here."}
{"sequence": "CTDKASSSC (disulfide 1-9 (inferred)) [Peptide M5.1, CX7C cyclic peptide hit for MUC5AC]", "values": [{"measurement": "% Prevalence", "value": 18.75, "unit": "%"}]}
